The numbers were not newly measured in patent US20050080043A1, “Self-preserved antibacterial nasal, inhalable, and topical ophthalmic preparations and medications” (priority 2000, published 2005), which cites them from elsewhere.

Read-outs that look alike come from different tables or passages of the source.

As for `CC[C@@H]1C(=O)OC[C@@H]1Cc1cncn1C` [pilocarpine], the “stability of drug solution” value (pH 5.0) is recorded as “very stable” and the “stability of drug solution” value (pH 6.8) is given as “relatively unstable”.
